Where two headings read alike, the source gives them in different places. Bridge positions count the residues as written; N and C are the ends. Square brackets hold non-standard residues; d marks the D form. Peptide text beside a SMILES is read from it.
Tests used:
[1] = circular dichroism; conditions: water; pH ns; 25 °C; 150 uM
[2] = assay type: cell-based, human
In short: (§1)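 Cells were plated at about 4 × 10^4/well in 2% FBS, then exposed to peptide at 100–3.12 μM in serum-free medium for 2 h or 24 h. Viability was measured by MTT reduction (0.5 mg/mL, 4 h, absorbance 570 nm) relative to untreated cells, as the mean ± SEM of three experiments.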

[3] = system: human keratinocytes (HaCaT cells); assay type: cell-based
In short: as §1

[4] = Protocol: The fusogenic ability of peptides was studied performing the lipid mixing experiment and evaluating a reduction in the fluorescence energy transfer efficiency between fluorophores 12-(N-methyl-N-(7-nitrobenz-2-oxa-1,3-diazol-4-yl)) (NBD) and Rhodamine (Rho) bound to liposomes. We prepared unlabeled LUVs mimicking Gram-positive and Gram-negative membranes at a concentration of 0.16 mM, and labeled LUVs mimicking Gram-positive and Gram-negative membranes with 0.6% mol of NBD-PE and 0.6% mol of Rho-PE at the concentration of 0.04 mM. LUVs were prepared as described above, and for the experiment, unlabeled and labeled LUVs were mixed at a 1:4 ratio to have final lipid concentration of 0.1 mM. The fusogenic activity of each peptide was evaluated at lipide/peptide ratio of 0.01, 0.03, 0.05, 0.1, 0.2, 0.3, 0.5, and NBD emission at 530 nm and Rho emission at 590 nm were recorded setting an NBD excitation wavelength set at 465 nm.
The percentage of fusion was calculated as a function of 100% value corresponding to complete mixing of LUVs upon the addition of Triton X-100 (0.05% v/v). The percentage fusion was calculated as [F530/F590]peptide−[F530/F590]blank/[F530/F590]triton−[F530/F590]blank×100 where F 530 and F 590 are the fluorescence intensities at 530 and 590 nm calculated in the absence and in the presence of the peptide and Triton X-100.

[5] = in vitro; assay type: in vitro ADME; conditions: isolated enzyme chymotrypsin, pH 7.8
Protocol: Peptide stability was evaluated by modifying previously described procedures. , The assays were performed in human serum and in the presence of proteolytic enzymes such as trypsin and chymotrypsin. For human serum stability, 2 mM peptide stock solutions were prepared in water and mixed with human serum (from male AB plasma, USA origin, sterile-filtered, Merck/Sigma-Aldrich, USA) to obtain a final concentration of 200 μM [human plasma/stock solution (9:1, v/v)]. The mixtures were incubated at 37 ± 1 °C, and 50 μL aliquots were taken at predetermined time intervals (0, 1, 2, 4, 8, and 24 h). Protease activity was quenched by adding 100 μL of acetonitrile (MeCN). The resulting cloudy suspensions were cooled to 4 °C for 30 min and centrifugated at 12,000 rpm for 10 min to remove the serum proteins. Then, the supernatants were analyzed by analytical HPLC (Shimadzu Nexera Liquid Chromatograph LC-30AD) which was equipped with a Phenomenex Kinetex reversed-phase column (C18, 5 μm, 100 Å, 150 mm × 4.6 mm) with a flow rate of 1 mL/min using a gradient of MeCN (0.1% TFA) in water (0.1% TFA), from 10 to 70% over 15 min, and UV detection at 220 nm. For enzyme stability, each peptide peptide (200 μM) was incubated with trypsin (0.5 μM) in PBS 1× (pH 7.2) or with chymotrypsin (0.005 μM) in Tris–HCl (100 mM, pH 7.8). Samples (50 μL) were collected at 0, 1, 2, 4, and 24 h, quenched with 0.5% TFA in water, and analyzed by HPLC under chromatographic conditions as described above. All experiments were conducted in triplicate. The percentage of intact peptides at each time point was determined by integrating the corresponding HPLC peak areas.

[6] = system: P. aeruginosa ATCC 27853; assay type: cell-based
Protocol: The ability of peptides to alter the bacterial membrane permeability of planktonic cells of S. aureus ATCC 25923 and P. aeruginosa ATCC 27853 was determined by the Sytox Green assay. Approximately 1 × 10^6 cells in 100 μL of PBS were combined with 1 μM Sytox Green in the dark for 5 min. The fluorescence intensity was monitored using a microplate reader (Infinite M200, Tecan), with excitation and emission at λ = 485 and 535 nm, respectively. Peptides were added (time = 0) at three different concentrations (i.e., 3.12, 6.25, and 12.5 μM). Increase in the fluorescence intensity is due to the binding of the dye to intracellular nucleic acids. Controls consisted of cells that were not exposed to the peptides. The values correspond to one representative experiment out of three independent experiments.

Compound: CC[C@H](C)[C@H](NC(=O)[C@H](CCCNC(=N)N)NC(=O)[C@H]1CCC(=O)NCCCC[C@H](NC(=O)[C@H](Cc2ccccc2)NC(=O)[C@H](Cc2c[nH]c3ccccc23)NC(=O)[C@@H]2CCCN2C(=O)[C@@H](NC(=O)[C@@H](N)Cc2ccccc2)C(C)C)C(=O)N[C@@H](CCCCN)C(=O)N[C@@H](Cc2ccccc2)C(=O)N[C@H](CC(C)C)C(=O)N1)C(=O)N[C@@H](CC(C)C)C(N)=O [Peptide 2, FVPWF[KKFle]RIL] (H-FVPWFKKF[dL][dE]RIL-NH2; lactam 6-10)
- helicity [1]: 7%
- CC50 ([2]; CC50): > 50 µM
- viability at 3.12 µM ([2]; Cell viability (%)): 102%
- viability at 6.25 µM ([2]; Cell viability (%)): 96%
- viability at 12.5 µM ([2]; Cell viability (%)): 95%
- viability at 25 µM ([2]; Cell viability (%)): 95%
- viability at 50 µM ([2]; Cell viability (%)): 64%
- Cell viability (%) ([3]; 3.12 µM): 101 ± 2%
- Cell viability (%) ([3]; 6.25 µM): 92 ± 2%
- Cell viability (%) ([3]; 12.5 µM): 92 ± 1%
- Cell viability (%) ([3]; 25 µM): 94 ± 1%
- CC50 ([3]; 24 h): 56.4 µM
- fusion ([4]; LUVs DOPG:CL, P/L ratio of 0.3): 100%
- fusion ([4]; LUVs DOPG:DOPE:CL, P/L ratio of 0.5): 75%
- remaining at 4 h, 200 μM [5]: ~20%
- membrane permeabilization, Sytox Green fluorescence (in words) [6]: lower intensity

Reference: publication PMC12703733, “Probing Guanidino Pendant or Bridged Groups in Cyclic Antimicrobial Peptides Derived from Temporin L: A Strategy to Improve Efficacy against Gram-Negative Bacteria” (Journal of Medicinal Chemistry, 2025)
